Reference: US11865103B2, “Methods of treating disorders associated with glycosylation defective proteins” (CASE WESTERN RESERVE UNIVERSITY, priority 2016, dated 2024)

System: hair cells of hCLRN1^N48K-YFP; clrn1^KO/KO larvae
Test: Extracellular microphonic potentials of lateral line neuromast hair cells
Type: in vivo, zebrafish
Conditions: 0.4 uM ART 4 hours/day from 3 dpf to 6 dpf; recorded at 6 dpf; untreated 7.286
Description: Zebrafish larvae at 6 dpf were anesthetized using MS-222 (Sigma-Aldrich) dissolved in a standard bath solution containing 120 mM NaCl, 2 mM KCl, 10 mM HEPES, 2 mM CaCl2, and 0.7 mM NaH2PO4 adjusted to pH 7.2. The larvae were then secured in a recording chamber using dental floss tie downs (Ricci and Fettiplace, 1997). Their blood flow and heart rate were visually observed to assess viability using an upright Olympus BX51WI microscope. Recordings were made with a PC-505B amplifier (Warner Instruments) and a PCI-6221 digitizer (National Instruments). Images were taken with a Grasshopper3 CMOS camera (Point Grey) and processed with software provided by the manufacturer. To record the activity of hair cells from the lateral line neuromasts, the cupula of neuromasts were deflected with a fluid jet placed ˜50 μm from the neuromast (Trapani and Nicolson, 2010) and controlled by an HSPC-1 (ALA Scientific Instruments) that delivered sinusoidal stimuli of 50 Hz. Microphonic potentials were recorded at room temperature (22° C.). […] Microphonic potentials were recorded using a jClamp for Windows (SciSoft, license: Joseph Santos-Sacchi, Yale University, New Haven, CT) in current-clamp mode, amplified by 20 (SIM983; Stanford 37 Research), and low-pass filtered at 200 Hz. […]

C[C@@H]1CC[C@H]2[C@@H](C)C(=O)O[C@@H]3O[C@@]4(C)CC[C@@H]1[C@]32OO4 [ART, Artemisinin]
Extracellular microphonic potentials (Mean±SEM): 9.529 μV
